In patent US11285155B2, “Pharmaceutical combinations for treating cancer” (SUPPORT-VENTURE GMBH, priority 2016, dated 2022):
Counter-ions that a name gives are not always drawn.

Assays:
CT26 wt_LLN cells = assay: Antitumoral efficacy in orthotopic syngeneic CT26 wt colon carcinoma model; assay type: in vivo, female BALB/c mice; conditions: necropsy day 20, pioglitazone HCl 25 mg/kg, pamapimod 100 mg/kg, p.o. once daily days 3-20; for antitumoral efficacy, primary tumor volume vs vehicle control / antitumoral efficacy, primary tumor weight vs vehicle control: alone or combined; for number of animals with metastases: of 12 animals per group, vehicle group six
Experimental: Evaluation of the Antitumoral Efficacy of Pamapimod and Pioglitazone Hydrochloride Alone and in Combination in an Orthotopic Syngeneic CT26 wt Colon Carcinoma Model in Female BALB/c Mice In Vivo The study consisted of 4 experimental groups, each containing 12 female BALB/c mice after randomization (for details, see Table 1 below). On day 0, 0.5×10^5 CT26 wt_LLN cells suspended in 15 μl PBS:Matrigel (1:2) were orthotopically implanted into the caecum of all participating animals. In the following period, primary tumor growth was monitored once weekly on days 2, 9, 15 and 20 using in vivo bioluminescence imaging. On day 2, 48 animals were randomized into 4 groups of 12 animals each according to the current in vivo bioluminescence imaging results (block of four after ranking). For block randomization, a robust automated random number generation within individual blocks was used (MS-Excel 2016). Thereby, detected luciferase signals served as randomization criteria. On the following day (day 3), treatment was initiated in all groups (see Table 1 for details). All treatments were performed at 10 ml/kg 1× daily p.o. on days 3-20. Pioglitazone HCL (25 mg/kg) and pamapimod (100 mg/kg) were administered both alone (Groups 2 and 3, respectively) and in combination (Group 4) once daily p.o. Animals of Group 1 were treated with 10 ml/kg Vehicle Control (0.9% NaCl, 0.5% Methyl Cellulose, 0.4% polysorbate 80, 0.9% benzyl alcohol, pH 4.8) once daily p.o. On day 20, the study was terminated due to tumor burden All animals were sacrificed and a necropsy performed. Primary tumors were collected and wet weights and volumes determined. On day 0, prior to surgery, and 24 h after surgery, all animals received the analgetic Meloxicam (Metacam®; 1 mg/kg) via subcutaneous injection. […] Thereby, cells were carefully injected in between caecum and mesentery. After the caecum had been repositioned, the skin was closed with wound clips. In the following, animal weights were measured three times weekly (Monday, Wednesday and Friday; balance: Mettler Toledo PB602-L). Primary tumor growth was monitored once weekly on days 2, 9, 15 and 20 using in vivo bioluminescence imaging. On day 2, 48 animals were randomized into 4 groups of 12 animals each according to the current in vivo bioluminescence imaging results (block of four after ranking). For block randomization, a robust automated random number generation within individual blocks was used (MS-Excel 2016). Thereby, detected luciferase signals served as randomization criteria. On the following day (day 3), treatment was initiated in all groups (see Table 2 for details). During the course of the study, tumor growth was monitored once weekly on days 2, 9, 15 and 20 using in vivo bioluminescence imaging. For this purpose, 150 mg/kg D-Luciferin were injected intraperitoneally (i.p.) into the mice 7 min before anesthetization. Light emission was measured 10 min post injection with a CCD-camera for 1-5 min using a NightOWL LB 981 bioluminescence imaging system (Berthold Technologies, Germany). On day 20, animals were killed by cervical dislocation. Primary tumors were collected, wet weights and volumes determined. Primary tumor volumes were analyzed using descriptive data analysis (Mean, SEM, Median and interquartile range). Statistical analysis of efficacy data was done using the Mann Whitney test and the unpaired t-test (in parentheses). All data analysis was performed using GraphPad Prism 5 from GraphPad Software, Inc., San Diego, USA.

A549 tumor cells = assay: Antitumoral efficacy in subcutaneous xenograft A549 lung carcinoma model; assay type: in vivo, female athymic nude mice; conditions: necropsy day 46; pioglitazone HCl 10 mg/kg, pamapimod 100 mg/kg, alone or combined, p.o. once daily days 22-45
Experimental: Evaluation of the Antitumoral Efficacy of Pamapimod and Pioglitazone Hydrochloride Alone and in Combination in a Subcutaneous Xenograft A549 Lung Carcinoma Model in Female Athymic Nude Mice In Vivo The study consisted of 4 experimental groups, each containing 10 female athymic nude mice after randomization (for details, see Table 1 below). On day 0, 2×10^6 A549 tumor cells in 100 μl PBS:Matrigel (1:1) were subcutaneously implanted into the left flank of all participating female athymic nude mice. In the following, primary tumor sizes were measured two times weekly (Monday and Friday) by calipering. […] For block randomization, a robust automated random number generation within individual blocks was used (MS-Excel 2003). On the following day (day 22), treatment was initiated in all groups (see Table 1 for details). Pioglitazone HCL (10 mg/kg) and pamapimod (100 mg/kg) were administered both alone (Groups 2 and 3, respectively) and in combination (Group 4) once daily p.o. on days 22-45. Animals of Group 1 were treated with 10 ml/kg Vehicle Control (0.9% NaCl, 0.5% Methyl Cellulose, 0.4% polysorbate 80, 0.9% benzyl alcohol, pH 4.8) once daily p.o. for the same time period. The study was terminated on day 46. All animals were sacrificed and necropsy was performed. Primary tumors were collected and wet weights and volumes determined. On day 0, 2×10^6 A549 tumor cells in 100 μl PBS:Matrigel (1:1) were subcutaneously implanted into the left flank of 54 female athymic nude mice. In the following, animal weights were measured three times weekly (Monday, Wednesday and Friday; balance: Mettler Toledo PB602-L). Primary tumor sizes were measured twice weekly by calipering (manual caliper, OMC Fontana). Tumor sizes were calculated according to the formula W^2×L/2 (L=length and W=the perpendicular width of the tumor, L>W). […] For block randomization, a robust automated random number generation within individual blocks was used (MS-Excel 2003). On the following day (day 22), treatment was initiated in all groups (see Table 1 for details). At necropsy, animals were weighed and killed by cervical dislocation. Primary tumors were collected and wet weights and volumes determined. Primary tumor volumes were analyzed using descriptive data analysis (Mean, SEM, Median and interquartile range). Statistical analysis of efficacy data was done using the Mann Whitney test and the unpaired t-test (in parentheses). All data analysis was performed using GraphPad Prism 5 from GraphPad Software, Inc., San Diego, USA.

Cn1c(=O)c(Oc2ccc(F)cc2F)cc2cnc(NC(CCO)CCO)nc21 [pamapimod, 6-(2,4-Difluorophenoxy)-2-[3-hydroxy-1-(2-hydroxyethyl)-propylamino]-8-methyl-8H-pyrido[2,3-d]pyrimidin-7-one]
antitumoral efficacy, primary tumor volume vs vehicle control (CT26 wt_LLN cells): significant in case of primary tumor volumes | antitumoral efficacy, primary tumor weight vs vehicle control (CT26 wt_LLN cells): just beyond significance in case of primary tumor weights | number of animals with metastases (CT26 wt_LLN cells): 2 animals | primary tumor volume vs vehicle control (A549 tumor cells): noticeable decrease in both tumor volumes and tumor weights which was significant for tumor volume | primary tumor weight vs vehicle control (A549 tumor cells): nearly significant for tumor weight

CCc1ccc(CCOc2ccc(CC3SC(=O)NC3=O)cc2)nc1 (stereo not shown) [pioglitazone HCl, pioglitazone hydrochloride]
antitumoral efficacy, primary tumor volume vs vehicle control (CT26 wt_LLN cells): no antitumoral efficacy | antitumoral efficacy, primary tumor weight vs vehicle control (CT26 wt_LLN cells): no antitumoral efficacy | number of animals with metastases (CT26 wt_LLN cells): four | primary tumor volume vs vehicle control (A549 tumor cells): noticeable reduction in both tumor volumes and tumor weights compared to control which approached statistical significance | primary tumor weight vs vehicle control (A549 tumor cells): noticeable reduction in both tumor volumes and tumor weights compared to control which approached statistical significance
